From patent publication US20250327032A1, “AGENT FOR AVOIDING IMMUNE RESPONSE OF TRANSGENIC CELLS” (HYPERION DRUG DISCOVERY CO., LTD., priority 2021, published 2025)

Columns and labels:
Assay type in all cases: cell-based
human myoblasts [1] = assay: Introduction of GFP viral vector (polybrene method), yield of GFP-positive cells; settings: JSH-23 0.1 μM; GFP viral vector MOI 10, polybrene 5 μg/mL
Protocol: (§1) Human mesenchymal stem cells were seeded in a 6-well plate to be about 2,000 cells/cm^2. Human myoblasts were seeded in another 6-well plate to be about 2,000 cells/cm^2. As a culture solution, a basal medium for each cell supplemented with JSH-23 was used. JSH-23 was added at 1 μM to the culture solution used for human mesenchymal stem cells, and at 0.1 μM to the culture solution used for human myoblasts. As a control, a basal medium, i.e., αMEM (+10% serum) for human mesenchymal stem cells and MCDB131 (+10% serum) for human myoblasts, to which 0.1% (v/v) DMSO instead of JSH-23 was added was used as a culture solution.
A mixed solution was prepared by mixing GFP viral vector and a polybrene solution. […]
Next, the above mixed solution was added to the plate seeded with human mesenchymal stem cells or human myoblasts, and cultured in a CO2 incubator at 37° C. for 24 hours.
Four days after the addition of the virus-free culture solution, the cells were detached with a cell detachment solution and centrifuged at 600×g for 5 minutes using a centrifuge, to collect the cells. The collected cells were counted using a hemocytometer. Furthermore, the GFP-positive percentage of the collected cells was measured using a flow cytometer. The yield of the number of GFP-positive cells was calculated from the number of cells counted and the GFP-positive percentage. […]

[2] = system: human mesenchymal stem cells; assay: as above; settings: JSH-23 1 μM; GFP viral vector MOI 10, polybrene 5 μg/mL
Protocol: as §1
A mixed solution was prepared by mixing GFP viral vector and a polybrene solution. The amount of GFP viral vector was prepared to be MOI of 10, and the amount of polybrene was prepared to be 5 μg/mL. […]
Four days after the addition of the virus-free culture solution, the cells were detached with a cell detachment solution and centrifuged at 600×g for 5 minutes using a centrifuge, to collect the cells. The collected cells were counted using a hemocytometer. Furthermore, the GFP-positive percentage of the collected cells was measured using a flow cytometer. The yield of the number of GFP-positive cells was calculated from the number of cells counted and the GFP-positive percentage.

human myoblasts [3] = assay: Introduction of TERT mRNA by lipofection, number of viable cells; settings: JSH-23 1 μM, 5 pg/cell
Protocol: (§2) Human mesenchymal stem cells were seeded in a 6-well plate to be about 10,000 cells/cm^2. Human myoblasts were seeded in another 6-well plate to be about 20,000 cells/cm^2. As a culture solution, a basal medium for each cell supplemented with 1 μM of JSH-23 was used. As a control, a basal medium for each cell supplemented with 0.1% (v/v) DMSO instead of JSH-23 was used as a culture solution.
(§3) A lipofection solution was prepared by adding Lipofectamine RNAiMAX and TERT mRNA to OptiMEM. As the TERT mRNA, that containing uridine, or that containing pseudouridine instead of uridine was used. It was prepared so that the amount of mRNA was 10 pg/cell for human mesenchymal stem cells and 5 pg/cell for human myoblasts. The prepared lipofection solution was mixed well according to the manufacturer's recommended protocol and allowed to stand at room temperature for about 15 minutes.
(§4) Next, each lipofection solution was added to the plate seeded with human mesenchymal stem cells or human myoblasts, and cultured in a CO2 incubator at 37° C. for about 1 day (18 hours) (human mesenchymal stem cells) or for 2 days (42 hours) (human myoblasts). After culturing, all the culture solution comprising the lipofection solution was removed and replaced with a new culture solution having the same composition as before the addition of the lipofection solution.
(§5) After another 6 hours, the above lipofection solution was newly prepared, added again to the plate seeded with human mesenchymal stem cells or human myoblasts, and cultured in a CO2 incubator at 37° C. for about 1 day (18 hours) (mesenchymal stem cells) or about 2 days (42 hours) (human myoblasts). These steps were repeated so that the introduction of genes was performed a total of 4 times.
(§6) Twenty-four hours after the final introduction of genes, the cells were detached with a cell detachment solution, centrifuged at 600×g for 5 minutes using a centrifuge, to collect the cells. The collected cells were counted using a hemocytometer.

[4] = system: human mesenchymal stem cells; assay: as above; settings: JSH-23 1 μM, 10 pg/cell
Protocol: as §2, §3, §4, §5, §6

TNF-α = TNF-α expression level (qPCR) after introduction of GFP mRNA containing pseudouridine; settings: human mesenchymal stem cells; JSH-23 10 μM; GFP mRNA containing pseudouridine 10 pg/cell; compared to pseudouridine only
Protocol: Reduction of TNF-α expression level using JSH-23 in introduction of GFP mRNA into human mesenchymal stem cells (hMSCs) Human mesenchymal stem cells were seeded in a 6-well plate to be about 10,000 cells/cm^2. As a culture solution, αMEM (+10% serum) supplemented with 10 μM of JSH-23 was used. As a control, αMEM (+10% serum) supplemented with 0.1% (v/v) DMSO instead of JSH-23 was used as a culture solution.
as §3, with “fluorescent protein GFP” for “TERT”, “The GFP mRNA” for “As the TERT mRNA, that containing uridine, or that”, “pg/cell.” for “pg/cell for human mesenchymal stem cells and 5 pg/cell for human myoblasts.”
Next, each lipofection solution was added to the plate seeded with human mesenchymal stem cells or human myoblasts, and cultured in a CO2 incubator at 37° C. for about 1 day (18 hours). […]
cDNA was synthesized from the purified RNA using SuperScript™ III Reverse Transcriptase according to the manufacturer's protocol. qPCR was performed using synthesized cDNA and PCR primers and PowerTrack™ SYBR Green Master Mix. The measured Ct value of TNF-α was normalized with the Ct value of β-actin, a housekeeping gene.

[5] = TERT mRNA containing pseudouridine instead of uridine

Compound: Cc1ccc(NCCCc2ccccc2)c(N)c1 [JSH-23]
- number of GFP-positive cells relative to control (human myoblasts [1]): increased
- number of GFP-positive cells relative to control [2]: increased
- yield (number of viable cells) compared to the control (control set to 1) (human myoblasts [3]; [5]): ≥ 5 times
- yield (number of viable cells) compared to the control (control set to 1) (human myoblasts [3]; TERT mRNA containing uridine): ≥ 7 times
- yield (number of viable cells) compared to the control (control set to 1) [4, 5]: ≥ 1.3 times
- yield (number of viable cells) compared to the control (control set to 1) ([4]; TERT mRNA containing uridine): ≥ 1.5 times
- expression level of TNF-α (normalized with β-actin) (TNF-α): further reduced
